{
  "source": "paper PMC5512541",
  "about": "(Science translational medicine, 2016)",
  "key": {"[1]": {"system": "ISF Aβ40 and Aβ42", "assay": "In vivo microdialysis of hippocampal ISF Aβ after γ-secretase inhibitor", "set-up": "species or system mouse", "details": "APP/PS1 and APP/PS1; nExt1CKO mice, 3-4 months; LY411575 5 mg/kg intraperitoneally; hippocampal microdialysis samples every 60 min for 6 hr; ELISA"}, "[2]": {"details": "human cerebrospinal fluid (CSF); endogenous Aβ; ref [8], [9]; cited from earlier work"}, "[3]": {"details": "mouse interstitial fluid (ISF); endogenous Aβ; ref [8], [9]; cited from earlier work"}, "[4]": {"system": "amyloid pathology", "details": "administration in a mouse model of AD; ref [65]; cited from earlier work"}},
  "note": "Like-named read-outs stand apart in the source and are kept apart here.",
  "data": [
    {"molecule": "C[C@H](NC(=O)[C@@H](O)c1cc(F)cc(F)c1)C(=O)N[C@@H]1C(=O)N(C)c2ccccc2-c2ccccc21", "note": "[γ-secretase inhibitor, LY411575]", "values": [
      {"measurement": "ISF Aβ40 and Aβ42 concentration after treatment", "setting": "[1]", "result": "gradually decreased in a time-dependent manner"}
    ]},
    {"molecule": "amyloid-β [Aβ]", "values": [
      {"measurement": "half-life in the brain", "setting": "[2]", "result": "~ 8 hours"},
      {"measurement": "half-life in the brain", "setting": "[3]", "result": "1 to 2", "unit": "h"}
    ]},
    {"molecule": "low-molecular-weight heparin", "values": [
      {"measurement": "effect on amyloid pathology", "setting": "[4]", "result": "reduced amyloid pathology"}
    ]}
  ]
}
